Data from publication doi:10.1101/2023.08.01.551199v1, “Activation of cannabinoid CB2 receptors by (−)-cannabichromene but not (+)-cannabichromene” (biorxiv, 2023).

Assays:
Assay type in all cases: cell-based
[1] = target: T1, human CB2 (Homo sapiens, UniProt P34972); test: fluorescent membrane potential assay (MPA Blue), AtT20-CB2 cells; settings: 37 °C, pH 7.4, 0.1% DMSO; no activation up to the highest concentration tested
T1 construct: gene CNR2; stably expressed in AtT20 FlpIn cells

[2] = target: T2, human TRPA1 (Homo sapiens, UniProt O75762); test: fluorescent intracellular calcium assay (FLIPR Ca5), HEK293-TRPA1 cells; settings: agonist; 37 °C, pH 7.4, 0.1% DMSO, 1.25 mM probenecid
T2 construct: tetracycline-induced expression in HEK293 FlpIn/T-REx cells

[3] = target: T2, human TRPA1; test: as above
Source text: fluorescent intracellular calcium assay (FLIPR Ca5), HEK293-TRPA1 cells on human TRPA1 | In HEK293-TRPA1 cells cinnamaldehyde produced an increase in Ca5 fluorescence

T2 sequence (O75762 whole entry): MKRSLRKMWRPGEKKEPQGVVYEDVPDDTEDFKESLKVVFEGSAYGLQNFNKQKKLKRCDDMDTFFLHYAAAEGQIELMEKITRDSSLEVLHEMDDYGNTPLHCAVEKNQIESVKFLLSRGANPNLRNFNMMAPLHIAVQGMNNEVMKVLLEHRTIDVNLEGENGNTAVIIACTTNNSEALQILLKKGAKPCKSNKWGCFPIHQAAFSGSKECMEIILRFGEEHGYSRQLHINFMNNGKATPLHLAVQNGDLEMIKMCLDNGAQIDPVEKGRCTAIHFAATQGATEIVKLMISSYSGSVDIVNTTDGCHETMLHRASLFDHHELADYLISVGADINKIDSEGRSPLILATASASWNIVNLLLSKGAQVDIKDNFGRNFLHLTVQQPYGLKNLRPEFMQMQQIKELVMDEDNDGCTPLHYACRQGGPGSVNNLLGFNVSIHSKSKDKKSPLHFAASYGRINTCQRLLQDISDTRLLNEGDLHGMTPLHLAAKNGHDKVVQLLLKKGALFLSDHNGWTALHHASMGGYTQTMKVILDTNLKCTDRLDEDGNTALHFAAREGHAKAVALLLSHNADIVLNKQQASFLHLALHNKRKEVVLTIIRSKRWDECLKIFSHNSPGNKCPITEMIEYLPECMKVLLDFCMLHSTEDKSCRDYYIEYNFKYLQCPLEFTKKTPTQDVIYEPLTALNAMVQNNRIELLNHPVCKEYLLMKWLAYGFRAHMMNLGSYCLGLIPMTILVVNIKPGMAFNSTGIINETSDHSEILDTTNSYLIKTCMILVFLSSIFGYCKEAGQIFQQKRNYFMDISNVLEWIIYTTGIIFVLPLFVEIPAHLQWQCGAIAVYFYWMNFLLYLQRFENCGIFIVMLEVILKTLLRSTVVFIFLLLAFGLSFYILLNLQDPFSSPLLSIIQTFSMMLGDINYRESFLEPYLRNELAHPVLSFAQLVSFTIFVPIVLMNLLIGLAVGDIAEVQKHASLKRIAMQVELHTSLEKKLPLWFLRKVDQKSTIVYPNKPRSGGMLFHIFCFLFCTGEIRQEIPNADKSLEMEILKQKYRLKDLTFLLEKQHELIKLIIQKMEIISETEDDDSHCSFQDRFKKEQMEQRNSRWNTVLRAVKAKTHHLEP
T1 sequence (P34972 whole entry): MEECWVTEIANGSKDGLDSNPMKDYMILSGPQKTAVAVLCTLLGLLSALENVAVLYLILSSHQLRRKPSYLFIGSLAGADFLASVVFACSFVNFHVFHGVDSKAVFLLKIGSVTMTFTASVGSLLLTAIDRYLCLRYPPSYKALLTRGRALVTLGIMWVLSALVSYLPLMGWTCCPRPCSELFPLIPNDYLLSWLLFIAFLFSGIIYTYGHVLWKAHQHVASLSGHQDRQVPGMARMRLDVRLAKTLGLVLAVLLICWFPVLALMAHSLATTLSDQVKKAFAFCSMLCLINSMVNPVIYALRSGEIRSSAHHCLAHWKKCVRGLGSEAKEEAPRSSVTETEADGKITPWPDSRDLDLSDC

CCCCCc1cc(O)c2c(c1)OC(C)(CCC=C(C)C)C=C2 (single isomer, unassigned; (+)) [(+)-CBC]
EC50 [1]: > 30 µM
increase in fluorescence at 30 μM [2]: 159 ± 27%

O=CC=Cc1ccccc1 [cinnamaldehyde]
EC50 [3]: 11 µM
